Test results from patent US20210251228A1, “METHODS FOR REPELLING DROSOPHILA SPECIES USING 2-PENTYLFURAN” (The United States of America, as represented by the …, priority 2020, published 2021).
Where a name gives a salt, the structure may show the parent alone.

System: SWD
Test: not given
Settings: 1-octen-3-ol released near ripe raspberries; cited from earlier work

| Compound | effect on infestation of ripe raspberries by SWD |
| --- | --- |
| C=CC(O)CCCCC (stereo not drawn) [1-octen-3-ol, reference compound] | significantly reduced infestation |

System: Drosophila suzukii antennae
Test: Coupled GC-EAD of bread dough headspace volatiles on SWD antennae
Settings: adult female SWD antennae; adsorbent extract of bread dough; authentic standards 10 ng/μl
Protocol: Adsorbent Sampling from Bread Dough: The bread dough bait consisted of whole-wheat flour (17.25 g), sugar (2 g), dry active bread yeast (0.325 g), apple cider vinegar (1 ml), and water (25 ml) (Cha, D. H., et al., J. Econ. Entomol., 111: 645-652 (2018a)). Headspace volatiles were collected from 10 g bread dough ball placed in a screened specimen cup (130 ml) by using 2.41 closed volatile collection chambers (ARS, Inc., Gainesville, Fla.) with one air inlet adapter (7 mm ID) on the top and an outlet adapter (7 mm ID) on the bottom wall. Clean air from a filtering and delivery system (ARS Inc., Gainesville, Fla.) was pushed into the chamber at 0.7 L/min through the top inlet port, and volatiles from the dough were pushed out through volatile traps (activated charcoal adsorbent filters, ORBO™32-small, Supelco Inc., Bellefonte, Pa.) on the bottom of the chamber. An additional ORBO™ filter was used to ensure that no breakthrough occurred. For each sample of dough (2 dough samples total), adsorbent collections were made over a 2-day period at room temperature using the same volatile trap. Volatiles were eluted with 600 μl methylene chloride every 24 h from the filters of a given dough sample and combined across the total of the collecting days (from 2 dough samples). The combined extract was kept at −20° C. and subjected to as chromatography-electroantennographic detection (GC-EAD) and gas chromatography-mass spectrometry (GC-MS) analyses.
Coupled Gas Chromatographic-Electroantennographic Detection (GC-EAD): Coupled GC-EAD analysis was performed as described previously (Cha, D. H., J. Chem. Ecol., 34: 1180-1189 (2008); Cha, D. H., et al., J. Chem. Ecol., 38: 1419-1431 (2012)) using a Hewlett Packard 5890 Series II gas chromatograph equipped with either a non-polar DB-5 ms capillary column (30 m×0.25 mm ID, 0.25 μm film thickness; Agilent Technologies, Wilmington, Del.) or polar DB-WAXetr capillary column (30 m×0.25 mm ID, 0.25 μm film thickness; Agilent Technologies, Wilmington, Del.) in the splitless mode with 1 min sampling time. The oven temperature was programmed at 40° C. for 5 min, then increased by 15° C./min to 250° C., and held for 5 min. Injector and detector temperatures were set at 250° C. Nitrogen gas was the carrier at a flow of 2 ml/min. The column effluent was split 1:1 in the oven via a “Y” glass splitter (Supelco). One arm of the splitter led to the flame ionization detector (FID) (250° C.) and the other to the heated EAD port (250° C.). Whole head preparations were made of individual flies, age 5-9 day, for GC-EAD analysis (Cha et al. 2012). The head was separated from the body and its antennae positioned between two gold wire electrodes immersed in saline filled (Drosophila ringer solution; 46 mmol NaCl, 182 mmol KCl, 3 mmol CaCl2, and 10 mmol Tris HCl at pH 7.2) micropipettes in an acrylic holder. The antennal holder was placed inside a humidified condenser and maintained at 5° C. The output signal from the antenna was amplified by a customized high input impedance DC amplifier and recorded on an HP 3390A integrator.
Chemical Analysis: GC-MS was carried out with an Agilent 5975MS coupled with a Agilent 6890GC equipped with either a DB-5 ms capillary column (30 m×0.25 mm ID, 0.25 μm film thickness; Agilent Technologies, Wilmington, Del.) or DB-WAXetr capillary column (30 m×0.25 mm ID, 0.25 μm film thickness; Agilent Technologies, Wilmington, Del.). Helium was the carrier gas (1.0 ml/min constant flow). The GC temperature program was the same as used for the GC-EAD analyses. The MS transfer-line was held at 260° C., the MS source at 230° C., and the MS quad at 150° C. Mass spectra were taken in EI mode (at 70 eV) in the range from 40 m/z to 350 m/z with a scanning rate of 4.58 scan/s. GC-MS data were processed with the MDS-Chemstation software (Agilent Technologies). […]

| Compound | GC-EAD activity (antennal response) |
| --- | --- |
| CCCCCOC(C)=O [pentyl acetate] | active |
| CC(=O)OCCC(C)C [isoamyl acetate] | active |
| CCCCCCCC(C)=O [2-nonanone] | active |
| CCCCCO [1-pentanol] | active |
| CCCCCCCCC=O [nonanal] | active |
| C=CC(O)CCCCC (stereo not drawn) [1-octen-3-ol, reference compound] | active |
| OCCc1ccccc1 [2-phenylethanol] | active |
| CC(C)CCOC=O [isoamyl formate] | active |
| CCCCCCCO [1-heptanol] | active |
| CCCCCCCC(=O)OCC [ethyl octanoate] | active |
| CC(=O)C(C)O (stereo not drawn) [acetoin] | active |
| CC(O)C(C)O (stereo not drawn) [2,3-butanediol] | active |
| CCCCCCO [1-hexanol] | active |
| CCC(C)COC(C)=O (stereo not drawn) [2-methylbutyl acetate] | active |
